Assay results from BigSolDB 2.1.

O=c1cc[nH]c(=O)[nH]1
solubility (mole fraction)
Conditions	283.15 K	288.15 K	293.15 K	298.15 K	303.15 K	308.15 K	313.15 K	318.15 K
in ethanol	7.7e-05	9.1e-05	0.000113	0.000135	0.000166	0.000212	0.000248	0.000296
in isopropanol	6.6e-05	7.6e-05	0.000105	0.00014	0.000169	0.000216	0.000245	0.000281
in methanol	0.000152	0.000166	0.000206	0.000253	0.000307	0.000362	0.000414	0.000519
in water	0.000166	0.000209	0.000264	0.000332	0.00042	0.000513	0.000613	0.000738
